The results in this text go back to article PMC4823997 (Journal of medicinal chemistry, 2015).

Where two headings read alike, the source gives them in different places. Bounds are passed on as bounds.

One data set has as its system HIV-1 IIIB. Briefly: Luciferase activity assay of HIV-1 infectivity in TZM-bl cells. Format: cell-based. Conditions: read-out: Anti-HIV EC50.
The next data set concerns CEM cells. Briefly: Cytotoxicity assay. Format: cell-based, human. Conditions: for CC50: read-out: Cytotoxicity CC50 CEM, CEM cells, 72 h.
For the next data set, the system named is TZM-bl cells. Briefly: Cytotoxicity assay. Particulars: for CC50: read-out: Cytotoxicity CC50 TZM-bl, TZM-bl cells, 72 h. Type of data set: cell-based.
The target in a further data set is hCXCR4 (Homo sapiens, UniProt P61073). Briefly: Radioligand [125I]SDF-1α binding to hCXCR4-transfected HEK293 membrane. Particulars: for fold decrease in CXCR4 binding affinity compared to compound 18: relative to compound 18; for fold decrease in CXCR4 binding compared to compound 25: relative to compound 25.
Chain of hCXCR4 (P61073 whole entry): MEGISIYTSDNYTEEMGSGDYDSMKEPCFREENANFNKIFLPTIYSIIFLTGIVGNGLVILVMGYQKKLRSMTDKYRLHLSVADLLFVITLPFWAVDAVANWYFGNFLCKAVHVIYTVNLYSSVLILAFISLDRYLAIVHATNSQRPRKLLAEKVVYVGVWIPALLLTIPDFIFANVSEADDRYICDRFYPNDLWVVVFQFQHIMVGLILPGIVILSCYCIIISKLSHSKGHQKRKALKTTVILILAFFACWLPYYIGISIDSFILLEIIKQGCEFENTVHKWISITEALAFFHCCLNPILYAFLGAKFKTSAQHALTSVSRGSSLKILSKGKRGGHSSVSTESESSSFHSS
The nature of data set [1]: Cytotoxicity assay. Type of data set: cell-based, human. Conditions: human, CEM cells (T-lymphoblast leukemia).
The nature of data set [2]: Cytotoxicity assay. Format: cell-based. Particulars: human, TZM-bl cells.
The next data set deals with T1, CXCR2 (Homo sapiens, UniProt P25025).
T1 sequence (P25025 1-360): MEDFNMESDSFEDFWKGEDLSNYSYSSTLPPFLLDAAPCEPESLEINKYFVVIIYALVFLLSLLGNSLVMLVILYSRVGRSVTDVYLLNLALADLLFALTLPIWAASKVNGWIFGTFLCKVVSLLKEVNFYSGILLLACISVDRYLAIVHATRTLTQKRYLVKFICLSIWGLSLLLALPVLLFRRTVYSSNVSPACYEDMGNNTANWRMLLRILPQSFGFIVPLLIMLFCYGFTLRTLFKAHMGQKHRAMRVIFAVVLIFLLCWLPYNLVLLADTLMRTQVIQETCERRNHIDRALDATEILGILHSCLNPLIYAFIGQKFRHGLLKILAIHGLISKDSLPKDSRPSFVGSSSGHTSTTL
Briefly: CXCR2 radioligand binding assay.

In another data set the target is CCR2 (Homo sapiens, UniProt P41597). Briefly: CCR2 radioligand binding assay.
Chain of CCR2 (P41597 whole entry, species assumed): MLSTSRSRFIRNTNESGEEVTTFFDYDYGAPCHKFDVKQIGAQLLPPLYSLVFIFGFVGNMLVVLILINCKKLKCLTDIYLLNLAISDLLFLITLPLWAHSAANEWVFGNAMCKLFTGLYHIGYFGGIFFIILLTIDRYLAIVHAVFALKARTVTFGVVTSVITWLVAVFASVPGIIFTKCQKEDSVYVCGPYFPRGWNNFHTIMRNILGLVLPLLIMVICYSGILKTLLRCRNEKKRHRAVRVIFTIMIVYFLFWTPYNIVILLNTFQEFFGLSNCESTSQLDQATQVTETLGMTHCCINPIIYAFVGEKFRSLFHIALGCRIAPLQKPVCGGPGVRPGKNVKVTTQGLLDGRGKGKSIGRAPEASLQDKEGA
Another data set has as its target T2, CCR4 (Homo sapiens, UniProt P51679).
T2 sequence (P51679 1-360): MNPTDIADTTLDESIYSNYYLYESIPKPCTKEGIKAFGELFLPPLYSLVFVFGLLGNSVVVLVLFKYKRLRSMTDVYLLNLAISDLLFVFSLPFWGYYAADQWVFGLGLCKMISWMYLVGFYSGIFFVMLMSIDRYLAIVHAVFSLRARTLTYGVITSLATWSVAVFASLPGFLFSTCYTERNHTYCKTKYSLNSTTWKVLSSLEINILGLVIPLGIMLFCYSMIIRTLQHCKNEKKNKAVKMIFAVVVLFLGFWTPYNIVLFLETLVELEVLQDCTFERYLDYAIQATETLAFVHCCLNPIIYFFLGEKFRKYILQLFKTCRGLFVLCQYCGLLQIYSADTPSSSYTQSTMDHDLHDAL
Briefly: CCR4 radioligand binding assay.

For another data set, the target named is CCR5 (Homo sapiens, UniProt P51681). Briefly: CCR5 radioligand binding assay.
Chain of CCR5 (P51681 whole entry, species assumed): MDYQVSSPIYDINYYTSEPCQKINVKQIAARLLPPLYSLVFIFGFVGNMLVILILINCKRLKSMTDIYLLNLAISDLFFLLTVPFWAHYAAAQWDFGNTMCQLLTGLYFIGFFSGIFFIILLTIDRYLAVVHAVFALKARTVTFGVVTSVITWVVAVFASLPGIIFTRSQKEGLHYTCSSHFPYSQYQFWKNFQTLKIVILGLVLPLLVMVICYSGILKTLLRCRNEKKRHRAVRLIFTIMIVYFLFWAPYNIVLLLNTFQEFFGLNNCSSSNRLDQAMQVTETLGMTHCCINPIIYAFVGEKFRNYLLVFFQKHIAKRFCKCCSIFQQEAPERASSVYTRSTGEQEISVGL
Setting [3] is: TZM-bl cells, HIV-1 IIIB, M.O.I. 1.

Regarding `c1cc(CN2CCCNCCNCCCNCC2)ccc1CN1CCCNCCNCCCNCC1` [AMD3100, reference compound], the EC50 in the data set on HIV-1 IIIB (Human immunodeficiency virus 1, IIIB, TZM-bl) was 66.6 ± 23.1 nM.
As to `COc1cc2nc(NCc3ccc(CNCCCNC4CCCCCC4)cc3)nc(NC3CCNCC3)c2cc1OC` [Compound 14, N^2-{4-[(3-Cycloheptylamino-propylamino)-methyl]-benzyl}-6,7-methoxy-N^4-piperidin-4-yl-quinazoline-2,4-diamine], in the data set with HIV-1 IIIB (setting [3]), the concentration giving a half-maximal response (EC50) stood at 48.4 ± 3.4 nM. Besides, in the data set with CEM cells, the “Selective Index CC50/EC50 CEM” value was 376 and the CC50 is 18.2 ± 4.5 µM. Besides, in the data set with TZM-bl cells, the “Selective Index CC50/EC50 TZM-bl” value turned out to be 399 and the CC50 came to 19.3 ± 0.88 µM.
Consider `COc1ccc2nc(NCc3ccc(CNCCCN4CCCCC4)cc3)nc(NC3CCNCC3)c2c1` [Compound 15, 6-Methoxy-N^4-piperidin-4-yl-N^2-{4-[(3-piperidin-1-yl-propy-lamino)-methyl]-benzyl}-quinazoline-2,4-diamine], for which the EC50 with HIV-1 IIIB (setting [3]) was 93.9 ± 14.7 nM. For the same compound, in the data set with CEM cells, the “Selective Index CC50/EC50 CEM” value turned out to be 196 and the CC50 stood at 18.4 ± 5.5 µM. Also, in the data set with TZM-bl cells, the “Selective Index CC50/EC50 TZM-bl” value worked out at 261 and the CC50 came out at 24.5 ± 2.5 µM.
Turning to `COc1ccc2c(NC3CCNCC3)nc(NCc3ccc(CNCCCN4CCCCC4)cc3)nc2c1` [Compound 16, 7-Methoxy-N^4-piperidin-4-yl-N^2-{4-[(3-piperidin-1-yl-propy-lamino)-methyl]-benzyl}-quinazoline-2,4-diamine], in the data set with HIV-1 IIIB (setting [3]), the EC50 came to 27 ± 4.2 nM. Also, in the data set with CEM cells, the “Selective Index CC50/EC50 CEM” value was 511 and the CC50 turned out to be 13.8 ± 1.9 µM. Also, in the data set with TZM-bl cells, the “Selective Index CC50/EC50 TZM-bl” value is given as 1193 and the CC50 was 32.2 ± 0.2 µM.
Regarding `CN1CCN(c2nc(NCc3ccc(CNCCCNC4CCCCC4)cc3)c3ncn(C)c3n2)CC1` [Compound 20, N-Cyclohexyl-N′-(4-{[9-methyl-2-(4-methyl-piperazin-1-yl)-9H-purin-6-ylamino]-methyl}-benzyl)-propane-1,3-diamine], at hCXCR4, the “fold decrease in CXCR4 binding affinity compared to compound 18” value (“fold decrease in CXCR4 binding affinity” for short) is on record as 4−5 fold. For the same compound, the CC50 at 72 h was determined as 13.8 ± 1.8 µM in “Cytotoxicity assay [1]” and 11.2 ± 2.1 µM in “Cytotoxicity assay [2]”. Further, the selectivity ratio at 72 h in “Cytotoxicity assay [1]” is 2120; in “Cytotoxicity assay [2]”, 1720.
As to `c1nc2c(NCc3ccc(CNCCCNC4CCCCC4)cc3)nc(N3CCC(C4CCNCC4)CC3)nc2[nH]1` [Compound 21, N-{4-[(2-[4,4′]Bipiperidinyl-1-yl-9H-purin-6-ylamino)-methyl]-benzyl}-N′-cyclohexyl-propane-1,3-diamine], on hCXCR4, the “fold decrease in CXCR4 binding affinity” value is listed as 2−3 fold. Besides, in the data set “Cytotoxicity assay [1]”, the CC50 at 72 h is more than 50 µM and the selectivity ratio at 72 h is more than 593. Moreover, in “Cytotoxicity assay [2]”, the CC50 at 72 h is more than 50 µM and the selectivity ratio at 72 h is more than 593.
In the case of `c1nc2c(NCc3ccc(CNCCCNC4CCCCC4)cn3)nc(N3CCNCC3)nc2[nH]1` [Compound 22, N-Cyclohexyl-N′-{6-[(2-piperazin-1-yl-9H-purin-6-ylamino)-methyl]-pyridin-3-ylmethyl}-propane-1,3-diamine], on hCXCR4, the “fold decrease in CXCR4 binding affinity” value worked out at 2 fold. In “Cytotoxicity assay [1]”, the CC50 at 72 h was more than 50 µM and the selectivity ratio at 72 h was more than 11900. Also, in the data set “Cytotoxicity assay [2]”, the CC50 at 72 h was more than 50 µM and the selectivity ratio at 72 h was more than 11900.
Regarding `c1nc2c(NCCc3ccc(CNCCCNC4CCCCC4)cc3)nc(N3CCNCC3)nc2[nH]1` [Compound 23, N-Cyclohexyl-N′-{4-[2-(2-piperazin-1-yl-9H-purin-6-ylami-no)-ethyl]-benzyl}-propane-1,3-diamine], the “fold decrease in CXCR4 binding affinity” value on hCXCR4 is recorded as “around 2 fold”. In addition, the EC50 in the data set with HIV-1 IIIB (setting [3]) is 3.1 ± 0.7 nM. Besides, in the data set on CEM cells, the “Selective Index CC50/EC50 CEM” value is on record as 15065 and the CC50 came to 46.7 ± 3.2 µM. Also, in the data set on TZM-bl cells, the “Selective Index CC50/EC50 TZM-bl” value is more than 16129 and the CC50 was more than 50 µM.
In the case of `c1cc(CNCCCNC2CCCCC2)cc(CNc2nc(N3CCNCC3)nc3[nH]cnc23)c1` [Compound 25, N-Cyclohexyl-N′-{3-[(2-piperazin-1-yl-9H-purin-6-ylamino)-methyl]-benzyl}-propane-1,3-diamine], the inhibition at 10 µM at hCXCR4 (read-out: inhibition (%) CXCR4) came out at 100%; on CXCR2 (read-out: inhibition (%) CXCR2), 12%; at CCR2 (read-out: inhibition (%) CCR2), 2%; on CCR4 (read-out: inhibition (%) CCR4), 0%; at CCR5 (read-out: inhibition (%) CCR5) it was 14%. The “fold increase in CXCR4 binding affinity compared to compound 24” value at hCXCR4 (relative to compound 24) is 4 fold. Further, in the data set on HIV-1 IIIB (setting [3]), the EC50 came to 0.61 ± 0.27 nM. For the same compound, the CC50 at 72 h in the data set “Cytotoxicity assay [1]” and in the data set “Cytotoxicity assay [2]” was more than 50 µM each time. Also, the selectivity ratio at 72 h in the data set “Cytotoxicity assay [1]” and in “Cytotoxicity assay [2]” was more than 83300 throughout. For the same compound, the IC50 on CXCR2, on CCR2, at CCR4 and on CCR5 was more than 10 µM in each case. The “selective index CXCR2” value on CXCR2 (selectivity for CXCR4 binding versus CXCR2) is reported as more than 2380. For the same compound, at CCR2 (selectivity for CXCR4 binding versus CCR2), the “selective index CCR2” value was more than 2380. In addition, the “selective index CCR4” value at CCR4 (selectivity for CXCR4 binding versus CCR4) is listed as more than 2380. The “selective index CCR5” value at CCR5 (selectivity for CXCR4 binding versus CCR5) is on record as more than 2380.
In the case of `c1cc(CNCCCNC2CCCCC2)nc(CNc2nc(N3CCNCC3)nc3[nH]cnc23)c1` [Compound 26, N-Cyclohexyl-N′-{6-[(2-piperazin-1-yl-9H-purin-6-ylamino)-methyl]-pyridin-2-ylmethyl}-propane-1,3-diamine], the “fold decrease in CXCR4 binding compared to compound 25” value at hCXCR4 is 4−10 fold. For the same compound, in the data set “Cytotoxicity assay [1]”, the 50% cytotoxic concentration (CC50) at 72 h is more than 50 µM and the selectivity ratio at 72 h was more than 20000. In “Cytotoxicity assay [2]”, the CC50 at 72 h is more than 50 µM and the selectivity ratio at 72 h was more than 20000.
In the case of `c1nc2c(NCc3cncc(CNCCCNC4CCCCC4)c3)nc(N3CCNCC3)nc2[nH]1` [Compound 27, N-Cyclohexyl-N′-{5-[(2-piperazin-1-yl-9H-purin-6-ylamino)-methyl]-pyridin-3-ylmethyl}-propane-1,3-diamine], the “fold decrease in CXCR4 binding compared to compound 25” value at hCXCR4 was 4−10 fold. In “Cytotoxicity assay [1]”, the 50% cytotoxic concentration (CC50) at 72 h is more than 50 µM and the selectivity ratio at 72 h is more than 8770. In the data set “Cytotoxicity assay [2]”, the CC50 at 72 h is more than 50 µM and the selectivity ratio at 72 h is more than 8770.
Consider `CC1(C)CN2C(CSC(=NC3CCCCC3)NC3CCCCC3)=CSC2=N1` [IT1t, reference compound], for which, in the data set with HIV-1 IIIB (setting [3]), the EC50 is more than 70 nM.

As usually defined, the EC50 is the concentration needed to bring the measured effect to its halfway point. The term CC50 denotes the concentration that lowers cell viability or growth by half. For orientation: inhibition means how much of the control response was suppressed. The IC50 is the midpoint of a concentration-inhibition curve. A high value points to a need for much substance.
